# Results as given in patent US20240327800A1, “HIGH THROUGHPUT LOCALIZED PASSIVE DIFFUSION DEVICE FOR PATTERNING ORGANOIDS” (University of Massachusetts, priority 2023, published 2024).
# System: hESCs (H9) derived forebrain organoid
# Assay: Dorsal-ventral patterning of forebrain organoids with a gradient of Shh agonist (immunostaining)
# Format: cell-based, human
# Method: The cells were sub-passaged every 3 to 4 days by 80% to 90% confluence. Before cell culturing, the device 500 was incubated in 2% pluronic for one hour, rinsed with 1×DPBS three times, and dried out before adding the gelatin-transglutaminase mixture to layer 3. Before cell seeding, the medium and medium chambers were incubated at room temperature with E8 basal for up to 24 hrs. The gelatin in the microwells was aspirated after being soaked in the E8 basal before cell seeding.
# Cells were seeded using E8 medium supplemented with 10 uM Rock inhibitor (Y27). 100, 000 cells suspended in 5 μl medium were then pipetted into each microwell. Then, the device 500 was centrifuged at 200 g for 2 mins. Then, another 1 ml and 500 μl of medium were added into the medium chamber and the morphogen chamber, respectively. The device 500 was placed into a 37 C.° incubator overnight to generate a cell aggregate. […] It was observed that the EBs were immobilized by growing them around the sutures. To grow EBs around the sutures, a high density of hESCs was seeded directly into the microwell. The size of the EB spheroid at day 8, around 500 μm, was consistent with the diameter of the EB at day 1. The size of EB spheroid could be grown by changing the E8 medium and adding 1% PS daily during continued culturing.
# Essential 6 (E6) medium supplemented with 1% PS, 5 μM dorsomorphin (DM), and 10 μM SB-431542 for both medium and morphogen chambers for six days for dual SMAD inhibition. […] To generate a D-V patterned organoid, 5 μM of purmorphamine and 5 μM of IWP-2 were supplemented to the basal medium in the morphogen chamber for five days between day 14 to day 30. To generate cortical organoids, the basal medium was used for both the medium and the morphogen chamber. To generate subpallial organoids, purmorphamine and IWP-2 supplement medium were used for both chambers. The medium was changed daily until day 30.
# The organoids were then rinsed with 1×DPBS two times for 10 mins, then fixed by incubating in 4% paraformaldehyde (Electron Microscopy Sciences) at 4 C.° overnight. […]
smiles,measurement,setting,value
c1ccc2c(Oc3nc(Nc4ccc(N5CCOCC5)cc4)c4ncn(C5CCCCC5)c4n3)cccc2c1 [purmorphamine],D-V patterning,Uniform Pur control: purmorphamine in both medium chamber and morphogen chamber (no gradient),No D-V patterning was established
same,NKX2.1 marker expression (ventral fate differentiation),"gradient group, 5 μM purmorphamine in morphogen chamber (with 5 μM IWP-2), five continuous days between day 14 and day 30, bottom half of organoid",higher expression level of NKX2.1 makers was established at the bottom half of the organoid
same,PAX6 expression (dorsal fate differentiation),"gradient group, 5 μM purmorphamine in morphogen chamber, five continuous days between day 14 and day 30, top half of organoid",dominant expression of PAX6 was observed
